Measured values: patent publication US8080659B2, “CXCR4 antagonists including diazine and triazine structures for the treatment of medical disorders” (Emory University, priority 2006, dated 2011)

Key:
[1] = test system: hypoxia-responsive element (HRE) of VEGF promoter; experiment: HRE-luciferase reporter of VEGF promoter activity in HRE-Luc MB-231 cells; format: cell-based, human
From the text: To determine whether lowering CXCR4 levels might affect VEGF transcription compared to HIF-1α the hypoxia-reporting luciferase/LacZ plasmid from Dr. Van Meir's laboratory was used as a reporter system to detect hypoxia-responsive element (HRE) of VEGF promoter activity (Post, D. E. and Van Meir, E. G. (2001) Gene Ther 8: 1801-1807). The sequence of HIF-1α siRNA was 5′-UUCAAGUUGGAAUUGGUAGdTdT-3′ (SEQ. ID No. 3). Pooled cell clones were created with MDA-MB-231 cells stably transfected with this plasmid (called HRE-Luc MB-231). Unexpectedly, HRE activity in normoxia was moderately high in MDA-MB-231 cells that have high CXCR4 levels in normoxia (FIG. 6, left), which was not observed in other cell lines with low CXCR4 and HIF-1 levels (LN229, U87, 9L, and MDA-MB-435). This moderately high HRE activity in MDA-MB-231 cells was suppressed by CXCR4 siRNA or HIF-1α siRNA. […] As expected, the HRE activity increased 2.5-fold by hypoxia treatment (1% oxygen and 5% CO2 in nitrogen). This elevated HRE activity was again suppressed by siRNA for CXCR4 or HIF-1α (FIG. 6, right).

HIV = conditions: MT-4 cells; read-out: concentration required for 50% protection of HIV-induced cytopathogenicity; cited from earlier work
CXCR4 [2] = target: T1, CXCR4 (Homo sapiens, UniProt P61073); experiment: SDF-1-stimulated Akt phosphorylation in MDA-MB-231 cells (western blot); format: cell-based; set-up: endogenous in cells; host or cells: MDA-MB-231; conditions: for concentration blocking Akt activation: 100 ng/ml SDF-1, 30 minutes; for block of SDF-1-stimulated phosphorylation of Akt: MDA-MB-231 cells, 100 ng/ml SDF-1, 30 min, dose-dependent
Method: FIG. 2 is an image of a western blot showing phosphorylation of Akt. Incubating MDA-MB-231 cells with 100 ng/ml of SDF-1 for 30 min stimulated phosphorylation of Akt. This activation was blocked with TN14003 or AMD3100 in a dose-dependent manner.
CXCR4/SDF-1 interaction activates PI3K/Akt and Ras/Raf/MEK/Erk pathways in a Gαi protein (PTX-sensitive)-dependent manner. Experiments were conducted to determine the effect of blocking CXCR4/SDF-1 interaction by either TN14003 or AMD3100 at different concentrations (0, 0.01, 0.1, 1, 10, 100, 1000 nM) on phosphorylations of Akt and Erk1/2 signaling. Incubating cells with 100 ng/ml of SDF-1 for 30 minutes activated Akt. […] However, the increase in Erk1/2 phosphorylation by SDF-1 was not significant as the increase in Akt phosphorylation.
(§1) WZZL811S was tested in a matrigel invasion assay to determine whether it can inhibit CXCR4/SDF-1-mediated invasion.

CXCR4 [3] = experiment: CXCR4 protein levels after treatment of cells; format: cell-based, human
MT-4 cells = conditions: cited from earlier work
[4] = test system: human umbilical vein endothelial cells (HUVECs); experiment: endothelial capillary tube formation assay; format: cell-based; conditions: 100 nM; SDF-1 100 ng/ml; 18 hours
Method: The anti-angiogenic effect of test compounds was measured by analyzing endothelial cell growth and tube formation. The angiogenic effect of SDF-1 (100 ng/ml) on capillary formation by human umbilical vein endothelial cells (HUVECs) was examined in vitro using Matrigel-coated 24-well plates precoated with Matrigel and incubated for 18 hours. The angiogenic effect of SDF-1 was inhibited by either 100 nM TN14003 (peptide-based CXCR4 antagonist) or WZZL811S treatment (FIG. 14a, graph FIG. 14b).

686LN cells = experiment: Head & Neck cancer metastasis model, 686LN cells i.v., FDG-PET; format: in vivo, mice; conditions: 20 mg/mouse/twice weekly, thirty days
Method: The metastatic 686LN cells were injected intravenously through the tail vein to generate experimental animal models for Head & Neck cancer metastasis, modulated via CXCR4. […] These 3-D projection images show lung metastases well (bone mets and liver mets were apparent in axial section images of mice in control groups, data not shown).

CXCR4 [5] = target: T1, CXCR4; experiment: SDF-1-stimulated Erk1/2 phosphorylation; format: cell-based; set-up: endogenous in cells; host or cells: MDA-MB-231; conditions: data not shown
Method: CXCR4/SDF-1 interaction activates PI3K/Akt and Ras/Raf/MEK/Erk pathways in a Gαi protein (PTX-sensitive)-dependent manner. Experiments were conducted to determine the effect of blocking CXCR4/SDF-1 interaction by either TN14003 or AMD3100 at different concentrations (0, 0.01, 0.1, 1, 10, 100, 1000 nM) on phosphorylations of Akt and Erk1/2 signaling.

MDA-MB-231 cells = experiment: matrigel invasion assay, CXCR4/SDF-1-mediated invasion; format: cell-based, human; conditions: 2 nM
Method: Lowering CXCR4 mRNA levels by siRNAs inhibited CXCR4/SDF-1-mediated invasion as measured by a matrigel invasion assay. The CXCR4 ligand, SDF-1 (400 ng/ml) was added to the lower chamber to attract CXCR4-positive breast cancer cells to migrate through the matrigel. The invasion of MDA-MB-231 cells transfected with siRNA1 decreased to 39±4% of the control cells, 51±8% with siRNA2, and only 16±6% with both siRNA1+2 (FIG. 3A).
as §1

[6] = clinical trials; cited from earlier work
CXCR4 [7] = target: T1, CXCR4; experiment: competition assay using biotin-labeled TN14003 on tumor cells; format: binding; set-up: endogenous in cells; probably MDA-MB-231
From the text: In a separate embodiment, a process for screening potential drug candidates is provided. The process includes providing a labeled peptide-based CXCR4 antagonist that has a detectable signal when bound to a CXCR4 receptor; contacting a CXCR4 receptor with at least one test molecule at a known concentration to form a test sample; contacting the test sample with the peptide-based antagonist; separately, contacting the peptide-based antagonist to a sample not including any test molecule to form a control sample; and comparing the signal from the test sample to the signal from the control sample. In a specific sub-embodiment, the peptide-based antagonist is derived from TN14003 (described in PCT Publication No. WO 04/087068 to Emory University). In a further subembodiment, the antagonist is labeled with a biotin molecule and the signal is elicited when the biotin-labeled antagonist is contacted with a streptavadin-conjugated signal molecule.
The signal elicited by binding of the CXCR4 antagonist and the receptor can be a fluorescent signal. […]
The peptide-based antagonist is typically a molecule with high affinity for the receptor. […] In this embodiment, the test compound is incubated with the receptor at varying concentrations and the signal elicited after binding of the labeled antagonist is measured and compared to control, as well as to each other. […]

T1 sequence (P61073 whole entry): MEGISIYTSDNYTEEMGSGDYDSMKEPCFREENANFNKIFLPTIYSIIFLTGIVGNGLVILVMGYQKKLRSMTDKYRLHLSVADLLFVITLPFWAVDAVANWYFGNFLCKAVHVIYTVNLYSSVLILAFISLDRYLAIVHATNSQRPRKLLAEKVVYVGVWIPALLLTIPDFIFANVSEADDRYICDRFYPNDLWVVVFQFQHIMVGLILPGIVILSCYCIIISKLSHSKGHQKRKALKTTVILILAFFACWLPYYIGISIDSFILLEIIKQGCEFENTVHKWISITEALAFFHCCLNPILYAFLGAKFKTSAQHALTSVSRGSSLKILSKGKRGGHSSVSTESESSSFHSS

Compound	HRE activity ([1]; hypoxia (1% oxygen))	HRE activity ([1]; normoxia)	EC50 (HIV) [nM]	concentration blocking Akt activation (CXCR4 [2])	block of SDF-1-stimulated phosphorylation of Akt (CXCR4 [2])	effect on CXCR4 protein levels (CXCR4 [3])	concentration leading to 50% toxicity (MT-4 cells) [µM]	angiogenic effect of SDF-1 on capillary tube formation [4]	metastasis to organs (686LN cells)	concentration attenuating Erk1/2 phosphorylation (CXCR4 [5])	block of CXCR4/SDF-1 mediated invasion (MDA-MB-231 cells)	side effect in clinical study [6]	concentration needed to compete against biotin-labeled TN14003 (CXCR4 [7]) [µM]
HIF-1α siRNA: HIF-1α siRNA, 5′-UUCAAGUUGGAAUUGGUAGdTdT-3′ (SEQ. ID No. 3) (guide UUCAAGUUGGAAUUGGUAGNN; further chemistry not given here)	suppressed	suppressed											
TN14003			0.6	sub-nano molar	blocked	did not affect	410	inhibited	failed to metastasize to any organs	sub-nano molar	blocked		
C1=CC(CN2CCCNCCNCCCNCC2)CC=C1CN1CCCNCCNCCCNCC1 (centres unmarked) [AMD3100]				a few nano molar	blocked	did not affect				100 nM		cardiac-related side effect	10
